Test results as given in ChEMBL document CHEMBL1144079, “7-Hydroxyceratinamine, a new cyanoformamide-containing metabolite from a sponge, Aplysinella sp” (J Nat Prod, 1999).
Activity calls are given as the source filed them. The rule behind the calls is not given here.

system: U-937; assay: Induction of apoptosis in human U937 cells; format: functional, cell-based

Structure (SMILES) | Activity
C[N+](C)(C)CCc1cc(Br)c(O)c(Br)c1 | inactive
NCCCOc1c(Br)cc(CCN)cc1Br | inactive
N#CC(=O)NCCCOc1c(Br)cc(CCN)cc1Br | inactive
N#CC(=O)NCCCOc1c(Br)cc(C(O)CN)cc1Br (centres undefined) | inactive
